According to PubChem BioAssay (NCI):
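Assay format: 96-well plates, 48-hour exposure. GI50 is the concentration that inhibits growth by half. TGI: concentration producing complete growth inhibition.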

tested on: MDA-MB-468 breast; assay: NCI anticancer screen, dose series, 48 h

Structure (SMILES) | GI50 [µM] | TGI [µM]
CNC(C)[C@H]1CCC2C3CCC4C[C@@H](N(C)C(=O)c5ccccc5)CC[C@]4(C)C3CC[C@@]21C (stereo partly specified) | 0.854 | 2.72
CNC12C3C4C1C1C2C3C41C(=O)N[C@H](C(=O)N(C)[C@H](C[C@@H](OC(C)=O)c1nc(C(=O)N[C@@H](Cc2ccccc2)C[C@H](C)C(=O)OC)cs1)C(C)C)C1CC1 (stereo partly specified) | 0.0705 | 1.37
COc1cc2oc(-c3cccc(C(=O)Nc4ccc(C)cc4)c3)cc(=O)c2c(OC)c1OC | 3.88 | 24.6
c1ccc2c(-c3cnn4cc(-c5ccc(N6CCNCC6)cc5)cnc34)ccnc2c1 | 0.335 | 1.54
CC(=O)N1N=C(c2ccc(Nc3nc(Nc4ccc(F)cc4)nc(Nc4ccc(Cl)cc4)n3)cc2)CC1c1ccc(N(C)C)cc1 (stereo unspecified) | 5.61 | 33.8
C=C1[C@@H](O)C[C@H]2C(C)(C)C[C@H](Cl)C[C@]2(C)[C@H]1C[C@H](O)[C@H]1CC(=O)NC1=O | 0.0138 | 0.124
O=C(Nc1cc(C(F)(F)F)cc(C(F)(F)F)c1)Nc1ccc(OCc2nnc(-c3ccc(Cl)cc3)o2)c(F)c1 | 1 | 4.17
NC(=S)N/N=C/c1ccc(OC(=O)COc2ccccc2)cn1 | 2.31 | 7.33
C=C1C(=O)O[C@H]2[C@H]1CC/C(COC(=O)C(=O)c1c[nH]c3ccc(Cl)cc13)=C\CC[C@@]1(C)O[C@@H]21 | 0.353 | 1.06
O=C1c2ccccc2C(=O)c2sc(Nc3ccc(Cl)cc3)nc21 | 1.98 | 4.68
CC(=O)[O][Hg][CH2]C1(C)COC(C)([CH2][Hg][O]C(C)=O)CO1 (stereo unspecified) | 1.97 | 4.12
O=C(c1ccccc1)c1ccc(O)c2ncccc12 | 2.41 | 7.75
CN(C)c1cccc(/C=C(\C#N)c2ccccc2)c1 | 0.402 | 36.8
CCOc1ccc(NC(=O)c2cc3ccccc3cc2O)cc1 | 64.6 | > 100
Cc1nc2ccccc2c(/C=C/c2ccccc2)c1C(=O)/C=C/c1ccc(Cl)cc1 | 1.56 | 3.15
O=C1Nc2ccc(CN3CCOC3=O)cc2/C1=C/c1cc(CN2CCOCC2)c[nH]1 | 20.7 | 73.3
CCCCCCCCc1ccc(CCC(N)(CO)CO)cc1 | 1.63 | 3.05
NS(=O)(=O)c1cccc(Nc2nc(SCC(=O)c3ccc([N+](=O)[O-])cc3)nc3ccccc23)c1 | 15.6 | 43.4
CC(=O)OC1CC2(O)C(CCC3(C)C(c4ccc(=O)oc4)CCC32O)C2(C)CCC(OC3OC(CO)C(O)C(O)C3O)C=C12 (stereo unspecified) | 0.0611 | 0.338

Structure (SMILES) | GI50 [µM] | TGI [µM]
CC1=C/C(O)CC(=O)Cc2nc(co2)C(=O)N2CCC=C2C(=O)OC(C(C)C)C(C)/C=C\C(=O)NC/C=C\1 (stereo unspecified) | 11.4 | 27.5
Clc1ccc(N/N=C(\c2ccccc2)c2ccccn2)nc1 | 0.0313 | 0.316
Clc1ccc(-c2nc(C(Cl)Cl)nc3cc(-c4ccccc4)nn23)cc1 | 0.772 | 2.15
C#C[C@]1(O)CC[C@H]2[C@@H]3CC=C4c5sc(-c6ccc7c(c6)OCO7)nc5CC[C@]4(C)[C@H]3CC[C@@]21C | 2.96 | 10
CC(C)c1ccc(/C=N/N=C(N)N)cc1 | 1.85 | 5.07
CCOC(=O)Nc1ccc(C(=O)/C=C/c2ccccc2)cc1 | 25.2 | > 100
O=C(O)c1cc2cc(O)ccc2[nH]1 | > 100 | > 100
N#CSCC1CC(O)(c2ccccc2)CC(c2ccc(Cl)cc2)O1 (stereo unspecified) | 5.07 | 12.9
COc1ccc(Nc2ncc(-c3ccccc3)o2)cc1OC | > 11.6 | > 25
OCc1ncc(-c2ccccc2)s1 | > 100 | > 100
C[C@@H]1CC[C@@H]2[C@@H]1[C@H](OC(=O)c1ccc3ccccc3c1)[C@]1(C3CCCCC3)C[C@@H](OC(=O)CO)[C@@]2(C)O1 | 10.7 | 26.2
C[n+]1cc2cc3c(cc2c2ccccc21)OCO3 | 0.503 | 3.45
CC(=O)Oc1ccccc1C(=O)NCCC[Se]C#N | 3.19 | 15.6
COC(=O)c1ccc(NC(N)=NCC(C)(C)COc2ccc(C(F)(F)F)cc2)nc1 | 1.06 | 2.73
Cc1ccc(NC(=O)N2CCCCC2)cc1[N+](=O)[O-] | > 100 | > 100
N=C1N=C(N)S/C1=C\c1ccc2ncccc2c1 | > 25 | > 25
O=C(NCCNC(=O)c1ccc(F)cc1)Nc1ccc(-n2cc(-c3ccncc3)c(-c3ccc(Cl)c(O)c3)n2)cc1 | 0.297 | 1.65
O=C(Nc1nc(-c2ccccc2)cs1)c1cc(O)c(O)c(O)c1 | 2.46 | 12.7
COc1ccc(C2CC(c3cccc(OC)c3)=NN2C(=O)c2cc(OC)c(OC)c(OC)c2)cc1 (stereo unspecified) | 0.484 | > 100
